# Like-named read-outs stand apart in the source and are kept apart here.
# How the values were obtained:
# Hennes-20 cells = test: Hennes-20 oncology screen; format: cell-based; conditions: 72 h, alamar Blue
# Experimental: To screen compounds for oncology activity Hennes-20 cells were plated at low (500 cells/well) versus high (15,000 cells/well) densities and treated with DMSO (vehicle) or dose-titration of compounds. The rationale for this screen is that an intrinsically toxic compound should kill cells regardless of density, including in Hennes-20 cells. However, a compound that selectively triggers the arrest of proliferation will inhibit cell growth when plated at a low density will appear cytotoxic due to inhibition of cell growth when plated at a low density but will appear non-toxic to cells plated at a high density where the cells are approaching confluence and the readout detected by a cell viability assay is already close to the maximum.
# To conduct the Hennes-20 screen, two 96 well plates were seeded with Hennes 20 cells in parallel where one was plated at a density of 500 cells/well and the other was plated at a density of 15,000 cells/well. 90 uL of minimum essential media was added to each well and plates were placed in a 37 degrees Celsius incubator for 24 hours. The next day, 10 ul of media containing dilutions of compound in DMSO were added to each plate. Six wells on each plate received 10 ul of media containing only DMSO. Each well was gently mixed 5 times with a 100 ul pipette. Plates were incubated at 37 degrees Celsius for 72 hours and then 10 uL of alamar Blue was added to each well. Wells were mixed 5 times then incubated at 37 degrees Celsius for […]. Plates were then read at 530/590.
# The rationale for the screen is as follows: Hennes-20 cells lack endogenous apoptosis. Cells plated at low density will proliferate and approach confluence in 72 hrs. A drug that arrests proliferation may have its proliferation blocking effect masked by the triggering of endogenous apoptosis. However, in the Hennes line, lacking endogenous apoptosis, such an arrest is manifest as a dose-dependent maintenance at low cell density. Since the high-density cells are plated close to confluence, the difference between Alamar Blue cell survival readings after 72 hrs reflects the ability of the drug to block proliferation in the low density-plated cells. In the high density-plated cells any diminution of Alamar Blue readout vs vehicle control is due to intrinsic toxicity, not proliferation arrest, since cells were already at confluence. Thus, a compound that appears toxic (low Alamar Blue readings after 72 hrs) on the low-density plate, but which appears non-toxic (high Alamar Blue readings after 72 hrs) on the high-density plate, must be arresting proliferation, since intrinsic compound toxicity should be observed at both low and high cell densities, not selectively on the low-density plate.
# C. albicans ATCC 24433 = test: Antifungal MIC assay; conditions: Candida albicans, ATCC24433
# S. aureus ATCC25923 = test: MIC assay, serial dilution; conditions: Staphylococcus aureus
# E. coli ATCC25922 = test: MIC assay, serial dilution; conditions: Escherichia coli
# A. baumannii ATCC19606 = test: MIC assay, serial dilution; conditions: Acinetobacter baumannii
# NL4-3 Rluc virus = test: microbe, parasite or virus in culture; format: cell-based, HIV; conditions: MT-2 cells, MOI 0.02, 96 hours
# VACV-LUC virus = test: microbe, parasite or virus in culture; format: cell-based; conditions: Orthopoxvirus vaccinia, HeLa, 2 h
# [1] = Human immunodeficiency virus 1, NL43, MT2, 96 h
# [2] = ATCC25922, read-out: Anti-bacterial Activity (E. coli MIC (uM)), E. coli, Table 5
Compound,EC50 (Hennes-20 cells) [µM],MIC (C. albicans ATCC 24433) [µM],MIC (S. aureus ATCC25923) [µg/mL],"MIC (E. coli ATCC25922; ATCC25922, E. coli ATCC25922) [µg/mL]",MIC (A. baumannii ATCC19606) [µg/mL],EC50 (NL4-3 Rluc virus; [1]) [µM],MIC (E. coli ATCC25922; [2]) [µM],EC50 (VACV-LUC virus) [µM],EC50 (NL4-3 Rluc virus) [µM]
c1cc2nc3c(N4CCSC4)cc(N4CCCC4)cc3[s+]c2cc1N1CCCC1 [Compound 118],12.5,3.1,6.25,> 100,> 100,,,,
CC1(C)C2CN(c3ccc4nc5ccc(N6CCCC6)cc5[s+]c4c3)CC21 (stereo not shown) [Compound 150],,1.6,1.6,100,25,,,,
CCc1cc(N2CCSCC2)cc2[s+]c3cc(N4CCSCC4)cc(C)c3nc12 [Compound 99],,,,,,26,6.3,,
CCc1cc(NC(C)C)cc2[s+]c3cc(N4CCCN(C(=O)OC(C)(C)C)CC4)cc(CC)c3nc12 [Compound 69],< 0.5,,,,,,,< 5,
CC(C)(C)OC(=O)N1CCCN(c2ccc3nc4ccc(N5CCCN(C(=O)OC(C)(C)C)CC5)cc4[s+]c3c2)CC1 [Compound 140],,> 100,> 100,> 100,> 100,,,,
CN(C)c1ccc2nc3c(C(C)(C)C)cc(N(C)C)cc3[s+]c2c1 [Compound 66],< 0.5,,,,,,,1.67,
c1cc2nc3ccc(N4CCCOCC4)cc3[s+]c2cc1N1CCCOCC1 [Compound 141],,> 100,100,> 100,> 100,,,,
c1cc2nc3ccc(N4CCSCC4)cc3[s+]c2cc1N1CCSCC1 [Compound 143],,> 100,,,,,,,
c1cc2nc3c(N4CCCNCC4)cc(N4CCCC4)cc3[s+]c2cc1N1CCCC1 [Compound 119],12.5,6.25,25,100,> 100,,,,
CCc1cc(N2CCOCC2)cc2[s+]c3cc(N4CCOCC4)cc(C)c3nc12 [Compound 97],,,,,,0.23,25,,
CCc1cc(N2CCNCC2)cc2[s+]c3cc(N4CCNCC4)cc(C)c3nc12 [Compound 92],> 12.5,,,,,4.3,,,
c1cc2nc3c(N4CCCC4)cc(N4CCCC4)cc3[s+]c2cc1N1C2CCCC1CC2 [Compound 145],,1.6,1.6,25,6.25,,,,
CC(C)(C)c1cc(N2CCCC2)cc2[s+]c3cc(N4CCCC4)cc(N4CCCC4)c3nc12 [Compound 130],,6.25,6.25,12.5,6.25,,,,
CCc1cc(N2CCC(N)CC2)cc2[s+]c3cc(N4CCCCC4)cc(C)c3nc12 [Compound 100],,,,,,33,25,,
CC(C)(C)c1cc([N+]2([O-])CCCC2)cc2[s+]c3cc(N4CCCC4)ccc3nc12 [Compound 133],,100,12.5,> 100,100,,,,
CCN(CC)c1cc(N2CCCC2)cc2[s+]c3cc(N4CCCC4)ccc3nc12 [Compound 117],12.5,1.6,1.6,25,12.5,,,,
CC1(C)C2CN(c3cc(N4CC5C(C4)C5(C)C)c4nc5ccc(N6CCCC6)cc5[s+]c4c3)CC21 (stereo not shown) [Compound 125],0.1,6.25,12.5,> 100,> 100,,,,
CC(C)(C)c1cc(N2CC3C(C2)C3(C)C)cc2[s+]c3cc(N4CC5C(C4)C5(C)C)cc(N4CC5C(C4)C5(C)C)c3nc12 (stereo not shown) [Compound 126],0.5,12.5,100,> 100,> 100,,,,
CCc1cc(N2CCCNCC2)cc2[s+]c3cc(N4CCCNCC4)cc(C)c3nc12 [Compound 16],,,,,,4.8,,,
CCc1cc(N2CCC(N(C)C)CC2)cc2[s+]c3cc(N4CCC(N(C)C)CC4)cc(C)c3nc12 [Compound 98],,,,,,38,,,
CC1(C)C2CN(c3ccc4nc5c(N6CC7C(C6)C7(C)C)cc(N6CCCC6)cc5[s+]c4c3)CC21 (stereo not shown) [Compound 124],,1.6,6.25,100,12.5,,,,
c1cc2nc3ccc(N4C5CCCC4CC5)cc3[s+]c2cc1N1C2CCCC1CC2 [Compound 146],,6.25,3.1,> 100,25,,,,

Compound,EC50 (Hennes-20 cells) [µM],MIC (C. albicans ATCC 24433) [µM],MIC (S. aureus ATCC25923) [µg/mL],"MIC (E. coli ATCC25922; ATCC25922, E. coli ATCC25922) [µg/mL]",MIC (A. baumannii ATCC19606) [µg/mL],EC50 (NL4-3 Rluc virus; [1]) [µM],MIC (E. coli ATCC25922; [2]) [µM],EC50 (VACV-LUC virus) [µM],EC50 (NL4-3 Rluc virus) [µM]
CCc1cc(N2CCCC2)cc2[s+]c3cc(N4CCC(C)C4)cc(C)c3nc12 (stereo not shown) [Compound 57],,,,,,17,12.5,,
CCc1cc(N(C)C)cc2[s+]c3cc(N4CCCNCC4)cc(CC)c3nc12 [Compound 87],,,,,,,,,10
CC1(C)C2CN(c3ccc4nc5ccc(N6CC7C(C6C(=O)O)C7(C)C)cc5[s+]c4c3)C(C(=O)O)C21 (stereo not shown) [Compound 127],,> 100,> 100,> 100,> 100,,,,
CC(C)(C)c1cc(N2CCCC2)cc2[s+]c3cc(N4CCCC4)cc(Br)c3nc12 [Compound 132],,12.5,6.25,100,12.5,,,,
c1cc2nc3ccc(N4CC5CNCC5C4)cc3[s+]c2cc1N1CC2CNCC2C1 (stereo not shown) [Compound 134],12.5,> 100,> 100,> 100,> 100,,,,
COC(=O)C1C2C(CN1c1ccc3nc4ccc(N5CC6C(C5C(=O)OC)C6(C)C)cc4[s+]c3c1)C2(C)C (stereo not shown) [Compound 129],,> 100,12.5,> 100,> 100,,,,
c1cc2nc3ccc(N4CCCNCC4)cc3[s+]c2cc1N1CCCNCC1 [Compound 139],,> 100,> 100,> 100,> 100,,,,
CN(C)c1ccc2nc3ccc(N4CCCC4)cc3[s+]c2c1 [Compound 35],0.5,,,,,,12.5,,
c1cc2nc3c(N4CCNCC4)cc(N4CCCC4)cc3[s+]c2cc1N1CCCC1 [Compound 120],12.5,100,100,> 100,> 100,,,,
C1=CCN(c2ccc3nc4ccc(N5CC=CC5)cc4[s+]c3c2)C1 [Compound 136],,> 100,25,> 100,> 100,,,,
CC1(C)C2CN(c3ccc4nc5ccc(N6C7CCCC6CC7)cc5[s+]c4c3)CC21 (stereo not shown) [Compound 147],,3.1,1.6,100,25,,,,
Cc1cc(N2CC3C(C2)C3(C)C)cc2[s+]c3cc(N4CC5C(C4)C5(C)C)cc(C)c3nc12 (stereo not shown) [Compound 11],< 0.5,,,,,,6.25,,
CC(C)c1cc(N2CCCC2)cc2[s+]c3cc(N4CCCC4)ccc3nc12 [Compound 41],< 0.5,,,,,,1.6,,
c1cc2nc3c(N4CCOCC4)cc(N4CCCC4)cc3[s+]c2cc1N1CCCC1 [Compound 123],,3.1,6.25,> 100,100,,,,
c1cc(N2CCCC2)c2nc3ccc(N4CCCC4)cc3[s+]c2c1 [Compound 38],2.5,,,,,,6.3,,
FC1(F)CCN(c2ccc3nc4ccc(N5CCC(F)(F)C5)cc4[s+]c3c2)C1 [Compound 53],> 12.5,,,,,,12.5,,
CC1(C)C2CN(c3ccc4nc5cc(Cl)c(N6CC7C(C6)C7(C)C)cc5[s+]c4c3)CC21 (stereo not shown) [Compound 9],0.5,,,,,,12.5,,
c1cc2nc3c(N4CCCC4)cc(N4CCCC4)cc3[s+]c2cc1N1CCCC1 [Compound 20],0.5,,,,,,0.8,,
CC(C)(C)OC(=O)NC1C2CN(c3cc(N4CCCC4)cc4[s+]c5cc(N6CCCC6)ccc5nc34)CC21 (stereo not shown) [Compound 111],,1.6,,,,,,,
c1cc2nc3ccc(N4CCNC4)cc3[s+]c2cc1N1CCNC1 [Compound 137],,> 100,> 100,> 100,> 100,,,,
c1ccc2c(c1)Sc1ccccc1N2c1ccc2nc3ccc(N4C5CCCC4CC5)cc3[s+]c2c1 [Compound 148],,100,25,> 100,100,,,,
COC(=O)C1C2C(CN1c1cc(N3CCCC3)cc3[s+]c4cc(N5CCCC5)ccc4nc13)C2(C)C (stereo not shown) [Compound 116],,,1.6,12.5,6.25,,,,
